Values quoted from earlier work, collected in US9682072B2, “Compositions and methods for treatment of lung dysfunction” (Children's Hospital Medical Center, priority 2015, dated 2017).

Legend:
FOXM1 = biological target: T1, FOXM1 (Homo sapiens, UniProt Q08050)
T1 sequence (Q08050 1-763): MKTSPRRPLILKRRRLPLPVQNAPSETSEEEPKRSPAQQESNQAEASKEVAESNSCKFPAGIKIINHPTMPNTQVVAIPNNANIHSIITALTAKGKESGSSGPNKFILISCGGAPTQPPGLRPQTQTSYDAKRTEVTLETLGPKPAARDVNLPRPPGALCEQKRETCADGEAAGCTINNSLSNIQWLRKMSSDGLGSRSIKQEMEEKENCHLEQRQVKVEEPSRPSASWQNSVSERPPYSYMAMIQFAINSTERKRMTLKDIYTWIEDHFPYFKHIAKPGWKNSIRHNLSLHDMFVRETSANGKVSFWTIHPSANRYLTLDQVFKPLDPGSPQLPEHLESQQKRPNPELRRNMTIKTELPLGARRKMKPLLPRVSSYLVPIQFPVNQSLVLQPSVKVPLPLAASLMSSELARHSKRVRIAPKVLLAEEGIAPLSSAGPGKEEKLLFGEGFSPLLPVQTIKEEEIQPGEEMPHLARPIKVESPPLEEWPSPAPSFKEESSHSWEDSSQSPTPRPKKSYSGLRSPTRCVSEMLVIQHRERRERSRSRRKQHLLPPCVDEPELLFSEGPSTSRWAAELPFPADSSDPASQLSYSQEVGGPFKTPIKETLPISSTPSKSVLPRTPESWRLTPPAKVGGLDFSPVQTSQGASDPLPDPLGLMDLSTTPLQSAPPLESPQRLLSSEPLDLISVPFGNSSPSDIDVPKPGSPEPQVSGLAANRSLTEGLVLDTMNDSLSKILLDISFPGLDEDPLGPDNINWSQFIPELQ

[1] = system: ovalbumin-induced lung inflammation; conditions: mouse, in vivo

Row | SMILES | binding of FOXM1 to its target DNA (FOXM1) | ovalbumin-induced lung inflammation [1]
1 | Nc1c(C(=O)Nc2ccc(F)cc2)sc2nc(-c3cccs3)cc(C(F)(F)F)c12 [FDI-6] | inhibits | 
2 | N#CC(=C(/N)Sc1ccccc1N)/C(C#N)=C(\N)Sc1ccccc1N [Compound U0126] |  | diminished
